Laboratory results taken from paper PMC11859726, “HDAC/σ1R Dual-Ligand as a Targeted Melanoma Therapeutic” (Pharmaceuticals, 2025).

Legend:
UM 92-1 cells = test: Cell proliferation, UM 92-1 cells; format: cell-based, human; settings: UM 92-1 cells; 3c 30 and 100 nM; pentazocine 2 μM; AC927 2 μM; Figure 3a
Procedure: (§1) Cells were seeded in 96-well plates at a cell-specific density, following quantification of cell numbers on counting chambers after trypsinization and staining with trypan blue. After seeding (72 h), at a cell confluence of ~50%, the medium was removed, and treatments were started with fresh media. Treatments, carried out in quadruplicate, lasted for 48 h. Then, the cells were fixed with 4% paraformaldehyde in PBS for 20 min and, after washing, stained with either 1% crystal violet in water or an acridine orange solution (50 µg/mL) for an additional 20 min. At the end of the incubations, cells were washed (3 times) with 100 μL/well of bidistilled water. Finally, for crystal violet assays, 100 μL of 10% acetic acid was added to each well, and the absorbance (λ = 590 nm) was measured with a Synergy HTX Bioteck spectrophotometer (BioSPX, Beersel, Belgium). For acridine orange assays, cell staining was evaluated by measuring the fluorescence (excitation 485/20 nm, emission 528/20 nm) with the Synergy HTX Bioteck reader.

A375 cells = test: Cell proliferation, CM A375 cells; format: cell-based, human; settings: CM A375 cells; 3c 90 and 200 nM; pentazocine 2 μM; AC927 2 μM; Figure 3b
Procedure: as §1

Structure (SMILES)	effect on proliferation (UM 92-1 cells)	effect on proliferation (A375 cells)
CC(C)=CCN1CCC2(C)c3cc(O)ccc3CC1C2C (stereo not shown) [PTZ, pentazocine, reference compound]	did not alter	did not alter
c1ccc(CCN2CCCCC2)cc1 [AC927, reference compound]	did not alter	did not alter
